Laboratory results taken from the supplement of paper PMC9265050, “Inhibition of RNA Binding in SND1 Increases the Levels of miR-1-3p and Sensitizes Cancer Cells to Navitoclax” (Cancers, 2022).

System: SW480
Assay: drug sensitivity score (DSS, integrated dose-response area); higher = more sensitive (stronger viability reduction); extreme values may be limits of the assay
How it was run: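 Viability of induced SW480 cells carrying control or SND1-targeting shRNA was read by CellTiter-Glo 72 h after plating at 1000 cells per well onto 384-well plates holding 525 small-molecule inhibitors at five concentrations. Induction used 0.1 µg/mL doxycycline for 7 days. Each drug sensitivity score integrates the area under a fitted non-linear dose–response model.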

[1] = shRNA: SND1 shRNA1 (SND1 silenced)
[2] = shRNA: SND1 shRNA2 (SND1 silenced)
[3] = shRNA: control shRNA (non-targeting)

O=c1cc(N2CCOCC2)oc2c(-c3ccccc3)cccc12
drug sensitivity score [1]: 8.9 DSS
drug sensitivity score [2]: 9.9 DSS
drug sensitivity score [3]: 8.3 DSS

CC1(C)CCC(CN2CCN(c3ccc(C(=O)NS(=O)(=O)c4ccc(NCC5CCOCC5)c([N+](=O)[O-])c4)c(Oc4cnc5[nH]ccc5c4)c3)CC2)=C(c2ccc(Cl)cc2)C1 [Venetoclax]
drug sensitivity score [1]: 0 DSS
drug sensitivity score [2]: 0 DSS
drug sensitivity score [3]: 0 DSS

O=C(Nc1ccc(OC(F)(F)F)cc1)c1sccc1NCc1ccnc2ccccc12 [OSI-930]
drug sensitivity score [1]: 1.8 DSS
drug sensitivity score [2]: 6.5 DSS
drug sensitivity score [3]: 6.3 DSS

Cc1c(NC(=O)OC[C@@H]2COCCN2)cn2ncnc(Nc3ccc4c(cnn4Cc4cccc(F)c4)c3)c12
drug sensitivity score [1]: 2 DSS
drug sensitivity score [2]: 3.1 DSS
drug sensitivity score [3]: 4 DSS

C=CC(=O)Nc1cc(Nc2nccc(-c3cn(C)c4ccccc34)n2)c(OC)cc1N(C)CCN(C)C [Osimertinib]
drug sensitivity score [1]: 8.5 DSS
drug sensitivity score [2]: 3.6 DSS
drug sensitivity score [3]: 9.6 DSS

CCn1cc(-c2ccnc3[nH]c(-c4cccc(CN(C)C)c4)cc23)c(-c2ccc(NC(=O)N(C)C)cc2)n1
drug sensitivity score [1]: 7.8 DSS
drug sensitivity score [2]: 9.5 DSS
drug sensitivity score [3]: 10.2 DSS

NC(=O)Nc1cc(-c2cccc(F)c2)sc1C(=O)N[C@H]1CCCNC1 [AZD7762]
drug sensitivity score [1]: 7.8 DSS
drug sensitivity score [2]: 8.6 DSS
drug sensitivity score [3]: 8.7 DSS

Cc1c(N)nc([C@H](CC(N)=O)NC[C@H](N)C(N)=O)nc1C(=O)N[C@H](C(=O)N[C@H](C)[C@@H](O)[C@H](C)C(=O)N[C@H](C(=O)NCCc1nc(-c2nc(C(=O)NCCC[S+](C)C)cs2)cs1)[C@@H](C)O)[C@@H](OC1OC(CO)C(O)C(O)C1OC1OC(CO)C(O)C(OC(N)=O)C1O)c1cnc[nH]1 (stereo partly drawn) [Bleomycin]
drug sensitivity score [1]: 4.8 DSS
drug sensitivity score [2]: 5.4 DSS
drug sensitivity score [3]: 4.2 DSS

FC(F)(F)c1ccc(CNc2ccc(Cc3c[nH]c4ncc(Cl)cc34)cn2)cn1 [Pexidartinib]
drug sensitivity score [1]: 0.3 DSS
drug sensitivity score [2]: 0.8 DSS
drug sensitivity score [3]: 0.7 DSS

CN(Cc1cnc2nc(N)nc(N)c2n1)c1ccc(C(=O)N[C@@H](CCC(=O)O)C(=O)O)cc1 [Methotrexate]
drug sensitivity score [1]: 11.7 DSS
drug sensitivity score [3]: 7.4 DSS

CCn1c(=O)c(-c2ccc(Cl)cc2Cl)cc2cnc(Nc3ccc(N4CCNCC4)c(F)c3)nc21 [FRAX486]
drug sensitivity score [1]: 5 DSS
drug sensitivity score [2]: 4.8 DSS
drug sensitivity score [3]: 8.5 DSS

O=C(c1ccc(C(=O)N2CCC(N3CCCC3)CC2)c(Nc2ccccc2)c1)N1CCC(N2CCCC2)CC1 [UNC1215]
drug sensitivity score [1]: 2.6 DSS
drug sensitivity score [2]: 1.9 DSS
drug sensitivity score [3]: 1.1 DSS

CS(=O)(=O)CCNCc1ccc(-c2ccc3ncnc(Nc4ccc(OCc5cccc(F)c5)c(Cl)c4)c3c2)o1 [Lapatinib]
drug sensitivity score [1]: 0 DSS
drug sensitivity score [2]: 0 DSS
drug sensitivity score [3]: 0.9 DSS

COc1ccc(CCc2nc3cc(-c4c(C)noc4C)ccc3n2C[C@H](C)N2CCOCC2)cc1Cl [SGC-CBP30]
drug sensitivity score [1]: 0.8 DSS
drug sensitivity score [2]: 2.1 DSS
drug sensitivity score [3]: 2.3 DSS

Nc1ncn([C@@H]2O[C@H](CO)[C@@H](O)[C@H]2O)c(=O)n1 [Azacitidine]
drug sensitivity score [1]: 3.7 DSS
drug sensitivity score [2]: 4.4 DSS
drug sensitivity score [3]: 2.9 DSS

CC(C)Nc1cc(-c2c[nH]c(C(=O)N[C@H](CO)c3cccc(Cl)c3)c2)c(Cl)cn1 [Ulixertinib]
drug sensitivity score [1]: 10.2 DSS
drug sensitivity score [2]: 2.3 DSS
drug sensitivity score [3]: 7.6 DSS

CC(=O)OC[C@H]1O[C@@H]([S-])[C@H](OC(C)=O)[C@@H](OC(C)=O)[C@@H]1OC(C)=O.CCP(CC)CC.[Au+] [Auranofin]
drug sensitivity score [1]: 6.2 DSS
drug sensitivity score [2]: 8.8 DSS
drug sensitivity score [3]: 8.7 DSS

Cc1cc(Nc2nc(N[C@@H](C)c3ncc(F)cn3)ncc2Cl)[nH]n1 [AZD1480]
drug sensitivity score [1]: 0.6 DSS
drug sensitivity score [2]: 0 DSS
drug sensitivity score [3]: 1.1 DSS

CNC(=O)c1ccccc1Sc1ccc2c(/C=C/c3ccccn3)n[nH]c2c1 [Axitinib]
drug sensitivity score [1]: 6 DSS
drug sensitivity score [2]: 2.8 DSS
drug sensitivity score [3]: 5.4 DSS

Cc1cc([C@@H](C)Nc2ccccc2C(=O)O)c2nc(N3CCOCC3)cc(=O)n2c1 [AZD-6482]
drug sensitivity score [1]: 0 DSS
drug sensitivity score [2]: 4.3 DSS
drug sensitivity score [3]: 3 DSS

CC1=C(/C=C/C(C)=C/C=C/C(C)=C/C(=O)O)C(C)(C)CCC1 [Tretinoin]
drug sensitivity score [1]: 0 DSS
drug sensitivity score [2]: 0 DSS
drug sensitivity score [3]: 0 DSS

O=C(Nc1ccc2[nH]nc(-c3ccncc3)c2c1)[C@@H]1CCN(CC(=O)N2CCN(c3ccc(-c4ncccn4)cc3)CC2)C1
drug sensitivity score [1]: 14.2 DSS
drug sensitivity score [2]: 8.8 DSS
drug sensitivity score [3]: 7.9 DSS

CNC(=O)c1ccc(N2C(=S)N(c3ccc(C#N)c(C(F)(F)F)c3)C(=O)C23CCC3)cc1F [RD162]
drug sensitivity score [1]: 0.3 DSS
drug sensitivity score [2]: 2.7 DSS
drug sensitivity score [3]: 0.8 DSS
